One experiment has as its system Mab ATCC19977 strain. The format is cell-based, Mycobacterium abscessus. The procedure:
Briefly, serial dilutions of the AMPs were prepared with potassium phosphate buffer (PPB) from the concentration range of 3.125 to 400 μg/ml and then 50 μl of each dilution were added to each 96-well plate. Colonies of the isolate were suspended and then further diluted in Mueller-Hinton broth to obtain a final concentration of 1×10^3 CFU/ml (optimized according to the available AMP stock concentration). Fifty microliters of this inoculum were added to each well of the plates. The plates were incubated for 3 days at 37°C. Plain media and bacterial suspensions without AMPs were used as negative and positive controls. The MIC values were read and recorded. All assays were performed in duplicate and two independent experiments.

Experiment in experiment [1]: not given
The source holds these as a separate data set.

The test system of experiment [2] is M. abscessus clinical isolate MAB14. Kind of experiment: In vitro susceptibility testing (DST), CLSI broth microdilution. The format is cell-based, M. abscessus subsp. massiliense. On the set-up: key to DST profile, interpretation, Day 3 / DST profile, interpretation, Day 5 / DST profile, interpretation, Day 14: S, susceptible; I, intermediate; R, resistant. How it is done: (§1) Drug susceptibility testing (DST) was performed according to the Clinical and Laboratory Standards Institute (CLSI) guidelines M24-A2 [42] using the broth microdilution method to determine the minimum inhibitory concentration (MIC). […] Colonies were grown at an adjusted cell density to a 0.5 McFarland standard and further diluted to 5×10^5 CFU/ml. […] These were then incubated at 37°C for 3, 5 and 14 days. The MIC was defined as the concentration in which no visible growth was observed. The results were interpreted according to the guidelines of CLSI. Inducible resistance was inferred by changes in MIC values from being susceptible at day 3 to resistant at day 14.

The test system of experiment [3] is M. abscessus clinical isolate MAB15. The experiment is described as above. In kind it is cell-based, M. abscessus subsp. massiliense. On the set-up: key to DST profile, interpretation, Day 3 / DST profile, interpretation, Day 5 / DST profile, interpretation, Day 14: S, susceptible; I, intermediate; R, resistant. How it is done:
as §1

Experiment [4] concerns M. abscessus clinical isolate MAB13. The description is as above. In kind it is cell-based, M. abscessus subsp. massiliense. Also noted: key to DST profile, interpretation, Day 3 / DST profile, interpretation, Day 5 / DST profile, interpretation, Day 14: S, susceptible; I, intermediate; R, resistant. How it is done:
as §1

Experiment [5] has as its system M. abscessus clinical isolate MAB12. Described as above. In kind it is cell-based, M. abscessus subsp. massiliense. Also noted: key to DST profile, interpretation, Day 3 / DST profile, interpretation, Day 5 / DST profile, interpretation, Day 14: S, susceptible; I, intermediate; R, resistant. The procedure:
as §1

Experiment [6] relates to M. abscessus clinical isolate MAB16. Described as above. In kind it is cell-based, M. abscessus subsp. massiliense. Also noted: key to DST profile, interpretation, Day 3 / DST profile, interpretation, Day 5 / DST profile, interpretation, Day 14: S, susceptible; I, intermediate; R, resistant. How it is done:
as §1

The subject of experiment [7] is M. abscessus clinical isolate MAB04. The experiment is described as above. Also noted: key to DST profile, interpretation, Day 3 / DST profile, interpretation, Day 5 / DST profile, interpretation, Day 14: S, susceptible; I, intermediate; R, resistant. In kind it is cell-based, M. abscessus subsp. abscessus. The procedure: as §1
Experiment [8] deals with M. abscessus clinical isolate MAB08. The experiment is described as above. In kind it is cell-based, M. abscessus subsp. abscessus. Also noted: key to DST profile, interpretation, Day 3 / DST profile, interpretation, Day 5 / DST profile, interpretation, Day 14: S, susceptible; I, intermediate; R, resistant. How it is done:
as §1

Experiment [9] has as its system M. abscessus clinical isolate MAB02. Described as above. The format is cell-based, M. abscessus subsp. abscessus. On the set-up: key to DST profile, interpretation, Day 3 / DST profile, interpretation, Day 5 / DST profile, interpretation, Day 14: S, susceptible; I, intermediate; R, resistant. The procedure: as §1
The test system of experiment [10] is M. abscessus clinical isolate MAB03. The experiment is described as above. Also noted: key to DST profile, interpretation, Day 3 / DST profile, interpretation, Day 5 / DST profile, interpretation, Day 14: S, susceptible; I, intermediate; R, resistant. In kind it is cell-based, M. abscessus subsp. abscessus. How it is done: as §1
The test system of experiment [11] is M. abscessus clinical isolate MAB01. The description is as above. In kind it is cell-based, M. abscessus subsp. abscessus. Also noted: key to DST profile, interpretation, Day 3 / DST profile, interpretation, Day 5 / DST profile, interpretation, Day 14: S, susceptible; I, intermediate; R, resistant. The procedure:
as §1

For experiment [12], the system named is M. abscessus clinical isolate MAB05. The experiment is described as above. The format is cell-based, M. abscessus subsp. abscessus. On the set-up: key to DST profile, interpretation, Day 3 / DST profile, interpretation, Day 5 / DST profile, interpretation, Day 14: S, susceptible; I, intermediate; R, resistant. How it is done: as §1
For experiment [13], the system named is M. abscessus clinical isolate MAB09. The description is as above. In kind it is cell-based, M. abscessus subsp. abscessus. Also noted: key to DST profile, interpretation, Day 3 / DST profile, interpretation, Day 5 / DST profile, interpretation, Day 14: S, susceptible; I, intermediate; R, resistant. How it is done:
as §1

Experiment [14] deals with M. abscessus clinical isolate MAB10. The experiment is described as above. In kind it is cell-based, M. abscessus subsp. abscessus. Also noted: key to DST profile, interpretation, Day 3 / DST profile, interpretation, Day 5 / DST profile, interpretation, Day 14: S, susceptible; I, intermediate; R, resistant. How it is done:
as §1

Experiment [15] relates to M. abscessus clinical isolate MAB11. The description is as above. The format is cell-based, M. abscessus subsp. abscessus. On the set-up: key to DST profile, interpretation, Day 3 / DST profile, interpretation, Day 5 / DST profile, interpretation, Day 14: S, susceptible; I, intermediate; R, resistant. How it is done: as §1
In experiment [16] the test system is M. abscessus clinical isolate MAB07. The description is as above. On the set-up: key to DST profile, interpretation, Day 3 / DST profile, interpretation, Day 5 / DST profile, interpretation, Day 14: S, susceptible; I, intermediate; R, resistant. In kind it is cell-based, M. abscessus subsp. abscessus. How it is done:
as §1

Experiment [17] deals with M. abscessus clinical isolate MAB06. Described as above. The format is cell-based, M. abscessus subsp. abscessus. Also noted: key to DST profile, interpretation, Day 3 / DST profile, interpretation, Day 5 / DST profile, interpretation, Day 14: S, susceptible; I, intermediate; R, resistant. The procedure:
as §1

[18] abbreviates: Mycobacteroides abscessus, 120 h, day 5, read-out: DST profile, MIC value, Day 5.

Converted amounts (≈) assume the structure as drawn. Where a SMILES comes first, the peptide text is derived from it. Bounds are passed on as bounds.

Regarding `CC(C)C[C@H](N)C(=O)NCC(=O)N[C@H](C(=O)N[C@@H](Cc1ccc(O)cc1)C(=O)O)[C@@H](C)O` [Pug-3] (H-LGTY-OH), the MIC values with Mab ATCC19977 strain is more than 400 µg/mL.
In turn, `CC[C@H](C)[C@H](NC(=O)[C@H](CCCCN)NC(=O)[C@H](CCCNC(=N)N)NC(=O)CNC(=O)[C@H](CC(C)C)NC(=O)[C@H](CO)NC(=O)[C@H](CCCNC(=N)N)NC(=O)[C@H](CC(C)C)NC(=O)CNC(=O)CN)C(=O)N[C@@H](CC(C)C)C(=O)N[C@@H](CCCNC(=N)N)C(=O)N[C@@H](C)C(=O)N[C@@H](Cc1c[nH]c2ccccc12)C(=O)N[C@@H](CCCCN)C(=O)N[C@@H](CCCCN)C(=O)O` [S62] (H-GGLRSLGRKILRAWKK-OH) came in with an MIC within 24 h, majority of isolates (10/16) of less than 50 µg/mL. In experiment [1], this compound yielded an MIC after 3 days, MAB01 and MAB03 of less than 50 µg/mL. Further, the MIC values in the experiment with Mab ATCC19977 strain is 200 µg/mL (≈ 109 µM).
As for `CC(C)C[C@H](NC(=O)[C@H](Cc1ccccc1)NC(=O)[C@H](CO)NC(=O)[C@@H]1CCCN1C(=O)[C@@H](N)Cc1ccccc1)C(=O)N[C@H](C(=O)NCC(=O)N[C@@H](CCCNC(=N)N)C(=O)O)C(C)C` [Pug-4] (H-FPSFLVGR-OH), the MIC values in the experiment with Mab ATCC19977 strain was more than 400 µg/mL.
In turn, `CC(C)C[C@H](NC(=O)[C@H](CCCCN)NC(=O)[C@H](CC(C)C)NC(=O)[C@@H](N)CC(C)C)C(=O)N[C@@H](Cc1ccccc1)C(=O)N[C@@H](Cc1ccccc1)C(=O)N1CCC[C@H]1C(=O)N[C@@H](Cc1ccccc1)C(=O)N[C@@H](CC(C)C)C(=O)N[C@@H](CCC(=O)O)C(=O)N[C@H](C(=O)NCC(=O)N[C@@H](CCC(=O)O)C(=O)O)[C@@H](C)O` [Pug-1] (H-LLKLFFPFLETGE-OH) returned an MIC values against Mab ATCC19977 strain of more than 400 µg/mL.
As to `NCC[C@H](O)C(=O)N[C@@H]1C[C@H](N)[C@@H](O[C@H]2O[C@H](CN)[C@@H](O)[C@H](O)[C@H]2O)[C@H](O)[C@H]1O[C@H]1O[C@H](CO)[C@@H](O)[C@H](N)[C@H]1O` [AMK, Amikacin], the MIC turned out to be 64 µg/mL (≈ 109 µM) in experiment [2] (setting [18]); 8 µg/mL (≈ 13.7 µM) in experiment [3] (setting [18]); 8 µg/mL (≈ 13.7 µM) in experiment [4] (setting [18]); 8 µg/mL (≈ 13.7 µM) in [5] (setting [18]); 32 µg/mL (≈ 54.6 µM) in experiment [6] (setting [18]); 8 µg/mL (≈ 13.7 µM) in experiment [7] (setting [18]). Further, the MIC in [8] (setting [18]) turned out to be 8 µg/mL (≈ 13.7 µM); in experiment [9] (setting [18]) it was 8 µg/mL (≈ 13.7 µM); in experiment [10] (setting [18]), 4 µg/mL (≈ 6.83 µM); in experiment [11] (setting [18]) it was 64 µg/mL (≈ 109 µM); in [12] (setting [18]), 32 µg/mL (≈ 54.6 µM); in experiment [13] (setting [18]) it was 8 µg/mL (≈ 13.7 µM). The MIC in experiment [14] (setting [18]) amounted to 64 µg/mL (≈ 109 µM); in experiment [15] (setting [18]), 16 µg/mL (≈ 27.3 µM); in [16] (setting [18]), 8 µg/mL (≈ 13.7 µM); in experiment [17] (setting [18]), 8 µg/mL (≈ 13.7 µM). In addition, the “DST profile, interpretation, Day 5” value in experiment [2] (day 5, CLSI interpretation) is “R”; in [3] (day 5, CLSI interpretation) it was “S”; in experiment [4] (day 5, CLSI interpretation) it was “S”; in experiment [5] (day 5, CLSI interpretation) it was “S”; in experiment [6] (day 5, CLSI interpretation) it was “I”; in experiment [7] (day 5, CLSI interpretation), “S”. For the same compound, the “DST profile, interpretation, Day 5” value is given as “S” in [8] (day 5, CLSI interpretation); “S” in experiment [9] (day 5, CLSI interpretation); “S” in experiment [10] (day 5, CLSI interpretation); “R” in experiment [11] (day 5, CLSI interpretation); “I” in [12] (day 5, CLSI interpretation); “S” in experiment [13] (day 5, CLSI interpretation). The “DST profile, interpretation, Day 5” value was “R” in experiment [14] (day 5, CLSI interpretation); “S” in experiment [15] (day 5, CLSI interpretation); “S” in [16] (day 5, CLSI interpretation); “S” in [17] (day 5, CLSI interpretation).
As for `CC(C)[C@H](NC(=O)[C@@H](NC(=O)[C@H](CO)NC(=O)CNC(=O)[C@@H](NC(=O)[C@H](C)NC(=O)CN)C(C)C)C(C)C)C(=O)O` [Pug-2] (H-GAVGSVV-OH), in the experiment on Mab ATCC19977 strain, the MIC values is more than 400 µg/mL.

Source of the values: article PMC8592419 (PLoS ONE, 2021).
